{
  "source": "patent US20250177473A1",
  "about": "“PEPTIDE REGULATORS OF METABOLISM” (Metabico, Inc., priority 2022, published 2025)",
  "key": {"[1]": {"tested_on": "M67 (Stat1/Stat3) luciferase reporter", "assay": "M67 (Stat1/Stat3) luciferase reporter in HepG2 cells", "format": "cell-based, human", "conditions": "16 hours; for Stat3 (M67) reporter activity with three PPAR antagonists: GW 6471 + T0070907 + GSK3787 applied together with EPSI 0.05 mg/mL; for effect of co-applied inhibitor/antagonist on EPSI-induced M67 reporter activation: EPSI 0.05 mg/mL + inhibitor (pravastatin 10 μM; SC144; NF 449)", "protocol": "Luciferase reporters used in the study: • M67 luciferase reporter.\nThe use of Stat1 inhibitor is required to distinguish the effects of Stat1 and Stat3.\nHepG2 cells were electroporated with 10 μg of purified plasmid DNA and 0.1 μg of pRL-CMV Renilla luciferase control reporter vector (Promega, Madison, WI, USA) using the Neon Transfection System (Thermo Fisher Scientific, Waltham, MA, USA) and the following regimens: three 20 ms 1230 V pulses.\nLuciferase activity was measured in Luminometer 20/20n (TurnerBioSystems, Sunnwale, USA) using Dual-Luciferase Reporter Assay System (Promega, Madison, USA) following the manufacturer's protocol.\nDY 268 (Tocris Cat. No. 5656) • PPAR-alpha: GW 6471 (Tocris, Cat. No. 4618) • PPAR-gamma: T0070907 (Selleck Chemicals, Catalog No. S2871) • PPAR-delta: GSK3787 (Selleck Chemicals, Catalog No. S8025) • LEPR.\nHepG2 cells were electroporated with 10 μg of purified plasmid DNA of M67 reporter and 0.1 μg of pRL-CMV Renilla luciferase control reporter vector (Promega, Madison, WI, USA) using the Neon Transfection System (Thermo Fisher Scientific, Waltham, MA, USA) and the following regimens: three 20 ms 1230 V pulses.\nDetection of luciferase signals was performed 16 hours after the compounds' application. Luciferase activity was measured in Luminometer 20/20n (TurnerBioSystems, Sunnwale, USA) using Dual-Luciferase Reporter Assay System (Promega, Madison, USA) following the manufacturer's protocol."}, "IRS2 gene expression": {"tested_on": "IRS2 gene expression", "assay": "IRS2 and metabolic gene mRNA expression (real-time PCR) in primary mouse fibroblasts", "format": "cell-based", "conditions": "24 hours", "description": "The study was carried out in primary mouse fibroblasts. Fibroblasts were isolated from skin tissues of twenty C57BL/6 mice in accordance with the standard protocol (Seluanov (2010). Establishing primary adult fibroblast cultures from rodents. JoVE. 44). Fibroblasts were cultured in a complete DMEM/F12 medium containing 15% FBS for two days, after which they were incubated with individual peptides for 24 hours. The dose of each peptide was 0.5 mg/ml. The experiment was carried out in 2 biological replicates.\nThe isolation of total RNA from cells was performed using the “ExtractRNA” reagent (Evrogen, Russia) analog of Trizol, according to the manufacturer's protocol. The quality of the isolated total RNA was assessed by measuring the concentration of RNA and the ratio of optical absorption at wavelengths of 260 nm and 280 nm. […]\nReal-time PCR was performed using commercially available kit qPCR mix-HS-SYBR+Low Rox (Evrogen, Russia) and 7500 real-time PCR System (Applied Biosystems). […] We analyzed expression levels of TSC1, TSC2, pS6K1, pAKT, IRS2, SREBP-1, Stat3 genes. […]\nIsolation of mRNA, synthesis of the first strand of cDNA, and RT-PCR were performed with techniques described earlier (See Example 1). Expression levels of IRS2, TNF-α, IL-6, and GSK3p (WNT-pathway) were analyzed. […]"}, "TNF-α": {"tested_on": "TNF-α", "assay": "TNF-α mRNA expression in LPS-induced primary mouse fibroblasts", "format": "cell-based", "conditions": "peptide 100 μM + LPS 0.5 μg/mL, 24 hours", "description": "(§1) The study was carried out in primary mouse fibroblasts. Isolation of fibroblasts was carried out with techniques described earlier (See Example 1). Fibroblasts were cultured for 3 days. The following stressors were applied separately: bacterial lipopolysaccharides (LPS), high glucose in the incubation medium, and serum-free incubation medium.\n(§2) LPS is a major outer surface membrane component that induces an inflammatory response in cells.\n(§3) Isolation of mRNA, synthesis of the first strand of cDNA, and RT-PCR were performed with techniques described earlier (See Example 1). Expression levels of IRS2, TNF-α, IL-6, and GSK3p (WNT-pathway) were analyzed.\n(§4) The study was carried out in primary mouse fibroblasts. Isolation of fibroblasts was carried out with techniques described earlier (See Example 1). Incubation of fibroblasts with 100 μM individual peptides and 0.5 μg/mL LPS was carried out for 24 hours. Each treatment group was represented in two biological replicates.\n(§5) Isolation of mRNA, synthesis of the first strand of cDNA, and RT-PCR were performed with techniques described earlier (See Example 1). Expression levels of RPL27, TNF-α, IL-6, and IRS2 genes were analyzed."}, "IL-6": {"tested_on": "IL-6", "assay": "IL-6 mRNA expression in LPS-induced primary mouse fibroblasts", "format": "cell-based", "conditions": "peptide 100 μM + LPS 0.5 μg/mL, 24 hours", "description": "as §1, §2, §3, §4, §5"}, "[2]": {"tested_on": "primary mouse fibroblasts", "assay": "Cell confluence of fibroblasts (cytotoxic effect)", "format": "cell-based", "conditions": "2.5 mg/ml (highest dose), 24 hours", "description": "The study was carried out in primary mouse fibroblasts. Isolation of fibroblasts was carried out with techniques described earlier (See Example 1). Fibroblasts were incubated with […] (SEQ ID NO: 1) peptide at different concentrations (0.005 mg/ml; 0.05 mg/ml; 0.5 mg/ml; 2.5 mg/ml) for 24 hours. Each treatment group was represented in two biological replicates."}, "HepG2 cells": {"tested_on": "HepG2 cells", "assay": "HepG2 cell death on incubation with antagonist", "format": "cell-based, human", "conditions": "co-incubation with EPSI 0.05 mg/mL in M67 reporter experiment", "description": "• HepG2 human hepatocyte carcinoma cell line (HB-8065, ATCC, USA). • HepG2 cells were cultured in a complete DMEM medium containing 15% FBS.\nTransfected HepG2 cells were co-incubated with EPSI peptide (0.05 mg/mL) and antagonists of the selected receptors."}},
  "note": "No end group written: not given here.",
  "data": [
    {"compound": "O=C(Nc1ccncc1)c1cc([N+](=O)[O-])ccc1Cl", "note": "[T0070907]", "values": [
      {"measurement": "Stat3 (M67) reporter activity with three PPAR antagonists", "setting": "[1]", "value": "significant induction"}
    ]},
    {"compound": "O=C(NNc1nc2cc(F)ccc2n2cccc12)c1cnccn1", "note": "[SC144]", "values": [
      {"measurement": "effect of co-applied inhibitor/antagonist on EPSI-induced M67 reporter activation", "setting": "[1]", "value": "partially inversed"}
    ]},
    {"compound": "SKEPSIS (Synthetic polymer)", "values": [
      {"measurement": "IRS2 expression during LPS-induced inflammatory response", "setting": "IRS2 gene expression; peptide 100 μM + LPS 0.5 μg/mL", "value": "induced"},
      {"measurement": "IRS2 gene expression levels", "setting": "IRS2 gene expression; pharmacophore screen, peptides 100 μM", "value": "induce IRS2 gene expression levels"},
      {"measurement": "LPS-evoked levels of TNF-α expression", "setting": "TNF-α", "value": "reducing LPS-evoked levels"},
      {"measurement": "LPS-evoked levels of IL-6 expression", "setting": "IL-6", "value": "reducing LPS-evoked levels"}
    ]},
    {"compound": "O=C(Nc1cc(C(=O)Nc2ccc(S(=O)(=O)O)cc2S(=O)(=O)O)cc(C(=O)Nc2ccc(S(=O)(=O)O)cc2S(=O)(=O)O)c1)Nc1cc(C(=O)Nc2ccc(S(=O)(=O)O)cc2S(=O)(=O)O)cc(C(=O)Nc2ccc(S(=O)(=O)O)cc2S(=O)(=O)O)c1", "note": "[NF 449]", "values": [
      {"measurement": "effect of co-applied inhibitor/antagonist on EPSI-induced M67 reporter activation", "setting": "[1]", "value": "partially inversed"}
    ]},
    {"compound": "DLSKEPSISRE", "values": [
      {"measurement": "cytotoxic effect (confluence of the cells)", "setting": "[2]", "value": "absence of cytotoxic effect"}
    ]},
    {"compound": "O=C(NCCS(=O)(=O)c1ccc(C(F)(F)F)cn1)c1ccc(Cl)cc1", "note": "[GSK3787]", "values": [
      {"measurement": "Stat3 (M67) reporter activity with three PPAR antagonists", "setting": "[1]", "value": "significant induction"}
    ]},
    {"compound": "CCC(=O)NC[C@H](Cc1ccc(OCCc2nc(-c3ccccc3)oc2C)cc1)N/C(C)=C\\C(=O)c1ccc(C(F)(F)F)cc1", "note": "[GW 6471]", "values": [
      {"measurement": "Stat3 (M67) reporter activity with three PPAR antagonists", "setting": "[1]", "value": "significant induction"}
    ]},
    {"compound": "COc1cc(OC)cc(N(CCNC(C)C)c2ccc3ncc(-c4cnn(C)c4)nc3c2)c1", "note": "[Erdafitinib]", "values": [
      {"measurement": "HepG2 cell death", "setting": "HepG2 cells", "value": "total cell death"}
    ]}
  ]
}
